Where two headings read alike, the source gives them in different places.
Columns and labels:
dopamine D2 receptor = target: T1, dopamine D2 receptor (Rattus norvegicus, UniProt P61169); experiment: Affinity with dopamine D2 receptor, [3H]Raclopride binding; design: species or system male Wistar rats; settings: 1.0 nM [3H]Raclopride, rat corpus striatum preparation, 25° C., 60 minutes
T1 construct: the corpus striatums excised from male Wistar rats were homogenized; from tissue; host or cells: rat corpus striatum membrane homogenate
Method: The affinity of the compounds of the general formulas (I), (II), and (III) with a dopamine D2 receptor was evaluated in accordance with the method of Kakohler et al. (Biochem. Pharmacol., vol. 34, pp. 2251-2259, 1985). That is, the corpus striatums excised from male Wistar rats were homogenized with the addition of 120 mM sodium chloride, 5 mM potassium chloride, 2 mM calcium chloride, 1 mM magnesium chloride, and 0.01% ascorbic acid contained in 50 mM tris-phosphate buffer (pH 7.7). The homogenate was centrifuged at […] and 35000×g for 10 minutes. The same buffer was added to the resultant precipitate,then this was homogenized again and was similarly centrifuged to obtain the precipitate. The same buffer was added to this precipitate which was then again homogenized to prepare the dopamine D2 receptor.
For the binding experiment, use was made of 1.0 nM of [3H]3,5-dichloro-N-[(1-ethyl-2-pyrrolidinyl)methyl]-6-hydroxy-o-anisamide (Raclopride), various concentrations of test samples were added to a system of 0.34 mg/ml of protein or a total of 0.25 ml, incubation was performed at 25° C. for 60 minutes, then the radioactivity was measured in the same way as in the Evaluation Example 1 to find the degree of binding.
The 50% inhibiting concentration of binding affinity (IC50) was calculated from the degrees of binding at various concentrations of the added samples. […] The IC50 values of typical compounds are shown together with the IC50 values for the serotonin receptor.

Wistar male rats = experiment: Ischemic brain tissue damage, transient right middle cerebral artery occlusion (MCAO) model; format: in vivo; settings: Rattus norvegicus, sc, 240 h; s.c., immediately after occlusion; 60 minutes occlusion; brain tissue damage 10 days after restart of blood flow (number of benzodiazepine bindings); read-out: Minimum effective dosage
Method: The evaluation of the efficacy on ischemic brain damage of the compounds of the general formulae (I), (II), and (III) was performed using the transient right middle cerebral artery occlusion (MCAO) model of Koizumi et al. (Jap. J. Stroke, vol. 8, pp. 1 to 8, 1986). That is, 10 to 11 week old Wistar male rats were used and the right middle cerebral artery was temporarily obstructed for 60 minutes. 10 days after the restart of the blood flow, the brains were excised and the degree of brain tissue damage of the cerebral cortex and corpus striatum of the obstructed side were evaluated by the damage marker of the number of benzodiazepine bindings. The tested drugs were dissolved in physiological saline and administered subcutaneously at the backs of the rats immediately after the right middle cerebral artery occlusion. As a control, physiological saline of […] body weight was similarly administered.

[1] = Acute toxicity after oral administration; settings: rat, in vivo; 24 hours after oral administration, six-week old male rats
Excerpt: This value is over 50 times or more of the expected clinical dosage and therefore, it is judged that the safety of the compounds according to the present invention is high.

[2] = target: T2, serotonin 5-HT1A receptor (Rattus norvegicus, UniProt P19327); experiment: Affinity with serotonin receptor, [3H]8-OH-DPAT binding; design: species or system male Wistar rats; settings: for D2/5-HT1A: ratio of IC50 (D2) to IC50 (5-HT1A)
T2 construct: the hippocampuses extracted from male Wistar rats were homogenized; from tissue; host or cells: rat hippocampus membrane homogenate
T2 sequence (P19327 1-422): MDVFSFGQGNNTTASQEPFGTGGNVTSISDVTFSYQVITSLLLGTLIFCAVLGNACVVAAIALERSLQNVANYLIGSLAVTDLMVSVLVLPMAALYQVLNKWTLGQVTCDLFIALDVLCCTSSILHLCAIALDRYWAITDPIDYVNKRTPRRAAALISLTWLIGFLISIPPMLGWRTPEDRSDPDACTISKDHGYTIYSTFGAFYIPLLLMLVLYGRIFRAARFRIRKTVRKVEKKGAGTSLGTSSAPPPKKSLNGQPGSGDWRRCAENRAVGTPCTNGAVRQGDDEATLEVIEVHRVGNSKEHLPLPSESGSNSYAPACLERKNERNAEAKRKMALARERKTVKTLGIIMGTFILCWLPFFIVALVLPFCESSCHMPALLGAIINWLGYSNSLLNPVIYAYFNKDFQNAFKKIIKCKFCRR
Method: The affinity of the compounds of the general formulas (I), (II), and (III) with a serotonin receptor was evaluated in accordance with the method of S. T. Peuroutka et al. (J. Neurochem., vol. 47, pp. 529-540, 1986). That is, the hippocampuses extracted from male Wistar rats were homogenized while adding 50 mM tris-phosphate buffer (pH 7.7). The homogenate was centrifuged at […] and 40000×g for 10 minutes. The same buffer was added to the obtained precipitate, then this was homogenized again and was similarly centrifuged to obtain the precipitate. This homogenization-centrifugation operation was repeated two times to obtain a final precipitate to which was then added 10 uM of N-methyl-N-2-propynylbenzylamine (Pargyline), 4 mM of calcium chloride, and 0.1% ascorbic acid contained in a 50 mM tris-phosphate buffer (ph 7.7). This was then homogenized to prepare the serotonin receptor.
For the binding experiment, 0.4 nM of [3H]2-di-n-propylamino-8-hydroxy-1,2,3,4-tetrahydronapthalene (8-DPAT; 8-hydroxy-N,N-dipropyl-2-aminotetetrilin) was used, various concentrations of test samples were added to a system of 0.25 mg/ml of protein or a total of 0.25 ml, and these were incubated at 25° C. for 30 minutes. A Whatman GF/C filter was used to filter each of the reaction solutions, then the filter was washed by 20 mM tris-phosphate buffer (pH 7.7). The serotonin receptor was trapped by the filter and the radio activity of the 8-OH-DAPT bonded to it was measured to find the degree of binding. The 50% inhibiting concentration of binding affinity (IC50) was calculated from the degrees of binding in the various sample concentrations. […] The IC50 values of typical compounds are shown together with the IC50 values with respect to the dopamine D2 receptor.

male Wistar rats = experiment: Anticonflict action, NaCl-Lick conflict method; format: in vivo; settings: Rattus norvegicus, po, 1 hour before the test; number of licks in 5 minutes of 2% saline; rats deprived of water for 48 hours; read-out: Minimum effective dosage
Method: The anticonflict action of the compounds of the general formulae (I), (II), and (III) was evaluated in accordance with the NaCl-Lick conflict method of Tanga et al. (Pharmacol., Biochem., Behav., vol. 32, pp. 773-776, 1989). That is, six-week old male Wistar rats in groups of six to 10 were deprived of water for 48 hours and placed in an experimental apparatus placed in a soundproof box (apparatus made of acrylic resin, 20×20×30 cm, provided with a drinking outlet having a diameter of 1 cm at height of 8 cm from the floor, designed to be able to measure the number of drops per unit hour by a drinkometer), and the anticonflict action of the medicament was evaluated using as an indicator the number of drops (number of licks) in 5 minutes from the start of drinking of 2% saline. The tested medicament was orally administered in an amount of 0.2 ml/100 g body weight 1 hour before the start of the test.

[3] = 0.4 nM [3H]8-OH-DPAT, rat hippocampus preparation, 25° C., 30 minutes, read-out: IC50 (5-HT1A)

T1 sequence (P61169 whole entry): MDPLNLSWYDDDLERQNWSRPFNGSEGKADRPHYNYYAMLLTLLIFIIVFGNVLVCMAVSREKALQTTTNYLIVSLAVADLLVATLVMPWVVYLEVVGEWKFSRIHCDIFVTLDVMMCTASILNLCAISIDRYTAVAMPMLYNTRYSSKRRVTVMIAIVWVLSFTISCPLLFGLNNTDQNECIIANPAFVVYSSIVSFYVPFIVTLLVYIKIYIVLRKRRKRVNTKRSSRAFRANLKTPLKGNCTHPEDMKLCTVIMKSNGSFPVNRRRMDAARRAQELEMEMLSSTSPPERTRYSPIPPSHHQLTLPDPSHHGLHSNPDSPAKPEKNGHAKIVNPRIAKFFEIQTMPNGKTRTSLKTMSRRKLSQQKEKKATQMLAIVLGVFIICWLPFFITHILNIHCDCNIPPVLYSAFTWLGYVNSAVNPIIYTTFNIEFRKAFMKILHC

| SMILES | IC50 (dopamine D2 receptor) | D2/5-HT1A [2] | melting point | minimal effective dose (male Wistar rats) | also measured |
| --- | --- | --- | --- | --- | --- |
| O=C1c2ccccc2OC=C(Cl)N1CCCCN1CC=C(c2ncccn2)CC1 [Example 56, 3-chloro-4,5-dihydro-4-(4-(4-(2-pyrimidinyl)-1,2,5,6-tetrahydropyridin-1-yl)butyl)-1,4-benzoxazepin-5-one] | 494 nM | 358 |  |  | minimal effective dose (Wistar male rats): 1 mg/kg; LD50 at 24 h [1]: ≥ 100 mg/kg; IC50 [2]: 1.38 nM |
| CC1=COc2ccccc2C(=O)N1CCCCN1CCN(c2cccc(Cl)n2)CC1 [Example 35, 4-(4-(4-(2-chloropyridin-6-yl)piperazin-1-yl)butyl)-4,5-dihydro-3-methyl-1,4-benzoxazepin-5-one] | 294 nM | 196 | 166 to 168 °C |  | IC50 [2, 3]: 1.5 nM |
| CC1=COc2cc(C)ccc2C(=O)N1CCCCN1CCN(c2cccc(C)c2)CC1 [Example 37] |  |  | 113 to 115 °C |  |  |
| COc1ccccc1N1CCN(CCCCN2C(=O)c3ccc(C)cc3OC=C2C)CC1 [Example 38, 4,5-dihydro-3,8-dimethyl-4-(4-(4-(2-methoxyphenyl)piperazin-1-yl)butyl)-1,4-benzoxazepin-5-one] |  |  | 88 to 90 °C |  |  |
| CC1=COc2ccc(C)cc2C(=O)N1CCCCN1CCN(c2ncc(F)c(N)n2)CC1 [Example 40, 4-(4-(4-(4-amino-5-fluoropyrimidin-2-yl)piperazin-1-yl)butyl)-4,5-dihydro-3,7-dimethyl-1,4-benzoxazepin-5-one] |  |  | 243 to 245 °C |  |  |

Second part, led by results:

| IC50 (dopamine D2 receptor) | D2/5-HT1A [2] | melting point | SMILES | minimal effective dose (male Wistar rats) | also measured |
| --- | --- | --- | --- | --- | --- |
|  |  | 141 to 142 °C | CC1=COc2ccccc2C(=O)N1CCCCN1CCN(c2ncccn2)CC1 [Example 34, 4,5-dihydro-3-methyl-4-(4-(4-(2-pyrimidinyl)piperazin-1-yl)butyl)-1,4-benzoxazepin-5-one] | 30 mg/kg |  |
| 51 nM | 67 |  | O=C1c2ccccc2OC=C(Cl)N1CCCCN1CCN(c2ccccn2)CC1 [Example 46, 3-chloro-4,5-dihydro-4-(4-(4-(2-pyridyl)piperazin-1-yl)butyl)-1,4-benzoxazepin-5-one] | 10 mg/kg | minimal effective dose (Wistar male rats): 0.3 mg/kg; IC50 [2, 3]: 0.77 nM |
|  |  | 150 to 151 °C | O=C1c2ccccc2OC=CN1CCCCN1CCN(c2ccccn2)CC1 [Example 32, 4,5-dihydro-4-(4-(4-(2-pyridyl)piperazin-1-yl)butyl)-1,4-benzoxazepin-5-one] | 30 mg/kg |  |
|  |  | 156 to 158 °C | COc1ccc2c(c1)OC=CN(CCCCN1CCN(c3ncccn3)CC1)C2=O [Example 33, 4,5-dihydro-8-methoxy-4-(4-(4-(2-pyrimidinyl)piperazin-1-yl)butyl)-1,4-benzoxazepin-5-one] | 10 mg/kg |  |
